Data reported in patent US20080064679A1, “Water Soluble Cannabinoids” (priority 2004, published 2008).
Like-named read-outs stand apart in the source and are kept apart here.

Assays:
human CB2 receptor = biological target: T1, human CB2 receptor (Homo sapiens, UniProt P34972); test: CB2 receptor binding, [3H]CP55,940 displacement in membranes of transfected cells; conditions: Table 1B, mean±SEM
T1 construct: expressed in transfected cells; b94 says HEK for CB2
Protocol: (§1) cLogP calculations. Absolute solubility determinations were not performed. Rather, cLogP calculations were performed using the CS ChemDraw Ultra software (Cambridge Soft Corporation, Cambridge, Mass.). Receptor Binding. HEK-293 cells stably expressing the human CB1 receptor were cultured in DMEM with 10% FBS and Chinese Hamster Ovary (CHO) cells stably expressing the human CB2 receptor were cultured in DMEM with 10% FCS. Cells were harvested by replacement of the media with cold phosphate-buffered saline containing 1 mM EDTA followed by centrifugation at 1000×g for 5 min at 4° C. The pellet was resuspended in 50 mM Tris-HCl containing 320 mM sucrose, 2 mM EDTA and 5 mM MgCl2 (pH 7.4) (centrifugation buffer), then centrifuged at 1000×g for 10 min at 4° C., and the resulting supernatant was saved. This process was repeated twice. The supernatant fractions were combined and centrifuged at 40,000×g for 30 min at 4° C. The resulting P2 pellet was resuspended in assay buffer (50 mM Tris-HCl (pH 7.4), 3 mM MgCl2, 0.2 mM EGTA, and 100 mM NaCl) and protein was determined by the method of Bradford ENRfu(Bradford 1976). Membranes were stored at −80° C. until use. […] The assay was incubated at 30° C. for 1 hr and terminated by addition of ice cold 50 mM Tris-HCl plus BSA (1 mg/ml) (pH 7.4) followed by filtration under vacuum through Whatman GF/B glass fiber filters with 3 washes with cold Tris buffer. Bound radioactivity was determined by liquid scintillation spectrophotometry at 50% efficiency after extraction by shaking samples for 30-60 min with Budget-Solve scintillation fluid. Data are reported as the mean±SEM of three experiments, each performed in triplicate. Ki values were calculated from displacement data using EBDA (Equilibrium Binding Data Analysis; BIOSOFT, Milltown, N.J.). [^35S]GTPγS Binding Assays. Concentration-effect curves were generated by incubating membranes (10 μg prepared from CB1 expressing cells as described above) in assay buffer containing BSA (1 mg/ml) with various concentrations of test compounds in the presence of 20 μM GDP and 0.1 nM [^35S]GTPγS in a 1 ml total volume. […] Basal binding was assessed in the absence of agonist, and nonspecific binding was measured in the presence of 10 μM GTPγS. The reaction was incubated for 90 min at 30° C. and terminated by filtration under vacuum through Whatman GF/B glass fiber filters with 3 washes with cold (4° C.) Tris buffer (50 mM Tris-HCl, pH 7.4). Bound radioactivity was determined by liquid scintillation spectrophotometry at 95% efficiency after extraction overnight in ScintiSafe Econo 1 scintillation fluid. Data are reported as mean±SEM of three experiments, each performed in triplicate. Nonlinear regression analysis was conducted by iterative fitting using JMP (SAS for Macintosh). Net-stimulated [^35S]GTPγS binding is defined as [^35S]GTPγS binding in the presence of drug minus basal and percent stimulation is expressed as (net stimulated [^35S]GTPγS binding/basal)×100%. Behavioral Evaluations. All animals were allowed to acclimate to the observation room overnight. Behavioral effects were assessed in the tetrad model in order to measure potency in producing antinociception, catalepsy, hypothermia, and hypomobility. The baselines for tail-flick latency (2-4 seconds) and rectal temperature were determined prior to i.v. injections. Baseline rectal temperatures were measured using a telethermometer and a thermometer probe inserted to 25 mm (Yellow Springs Instrument Co., Yellow Springs, Ohio). The mice were then given either an i.v. i.c.v. injection of the analog. The mice were placed in individual photocell activity chambers 5 min later. Spontaneous activity was monitored for 10 min in a Digiscan Animal Activity Monitor (Omnitech Electronice, Inc., Columbus, Ohio) as measured by the number of interruptions of 16 photocell beams per chamber. The total number of beam interruptions during the 10-min period was determined and presented as total counts.

[1] = Protocol: By “water-soluble” we mean that 1 mg of material in 1 ml of water gives a clear solution and is water miscible.
(§2) For the in vivo studies, the drugs were dissolved in either saline or emulphor:ethanol:saline (E:E:S) as indicated.

human CB1 receptor [2] = biological target: T2, human CB1 receptor (Homo sapiens, UniProt P21554); test: CB1 receptor binding, [3H]CP55,940 displacement in membranes of transfected cells; conditions: CB1 Ki
T2 construct: expressed in transfected cells; b94 says CHO for CB1
Protocol: as §2
as §1, with “chamber.” for “chamber. The total number of beam interruptions during the 10-min period was determined and presented as total counts.”

human CB1 receptor [3] = biological target: T2, human CB1 receptor; test: [35S]GTPγS binding assay in membranes of CB1 expressing cells; assay type: biochemical
Protocol: as §2
as §1, with “chamber.” for “chamber. The total number of beam interruptions during the 10-min period was determined and presented as total counts.”

mice [4] = test: Tail-flick antinociception (T.F.), mouse tetrad; assay type: in vivo; conditions: Mus musculus, iv, mice, i.v., vehicle E:E:S (1:1:18); read-out: T.F. ED50 (antinociception in the tail-flick procedure)
mice [5] = test: Rectal temperature (R.T.), mouse tetrad; assay type: in vivo; conditions: Mus musculus, iv, vehicle E:E:S (1:1:18), read-out: R.T. ED50 (lowering rectal temperature)
mice [6] = test: Spontaneous activity (S.A.), mouse tetrad; assay type: in vivo; conditions: Mus musculus, iv, vehicle E:E:S (1:1:18), read-out: S.A. ED50 (reducing spontaneous activity)
mice [7] = test: Tetrad model, all four behavioral measures together (time course, oral and i.c.v. administration); assay type: in vivo, mouse; conditions: i.c.v.; analogs dissolved in water, THC in emulphor:ethanol:saline; Table 5 not given
[8] = 1 mg of analog in 1 ml of water, visual observation

T1 sequence (P34972 whole entry): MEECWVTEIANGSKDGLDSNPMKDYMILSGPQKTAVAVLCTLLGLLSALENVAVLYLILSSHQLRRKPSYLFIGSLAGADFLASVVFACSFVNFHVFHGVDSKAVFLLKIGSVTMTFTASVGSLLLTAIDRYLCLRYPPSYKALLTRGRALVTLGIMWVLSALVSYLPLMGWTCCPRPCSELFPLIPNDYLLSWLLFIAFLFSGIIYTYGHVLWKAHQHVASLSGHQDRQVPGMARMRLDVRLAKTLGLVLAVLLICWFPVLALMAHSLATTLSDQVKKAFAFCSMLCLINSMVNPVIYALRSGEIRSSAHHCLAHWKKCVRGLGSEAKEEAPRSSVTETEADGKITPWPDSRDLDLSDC
T2 sequence (P21554 whole entry): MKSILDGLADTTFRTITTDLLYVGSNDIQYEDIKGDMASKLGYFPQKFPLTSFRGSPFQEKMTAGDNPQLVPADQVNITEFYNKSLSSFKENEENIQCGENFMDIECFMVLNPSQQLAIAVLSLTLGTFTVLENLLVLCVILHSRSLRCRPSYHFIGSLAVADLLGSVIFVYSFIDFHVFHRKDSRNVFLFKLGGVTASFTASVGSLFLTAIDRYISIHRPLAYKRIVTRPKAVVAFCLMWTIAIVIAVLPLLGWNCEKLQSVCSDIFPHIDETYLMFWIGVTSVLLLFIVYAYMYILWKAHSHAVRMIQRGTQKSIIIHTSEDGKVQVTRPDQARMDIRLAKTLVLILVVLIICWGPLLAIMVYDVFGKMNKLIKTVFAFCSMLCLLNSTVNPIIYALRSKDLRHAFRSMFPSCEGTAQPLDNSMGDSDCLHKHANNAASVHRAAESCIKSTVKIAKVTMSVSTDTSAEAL

For `CC1=CC[C@@H]2[C@@H](C1)c1c(O)cc(C(C)(C)CCCCNC(=O)Cc3nc(-c4ccccc4)oc3C)cc1OC2(C)C` [O-2590, 5-Methyl-2-phenyl-oxazol-4-yl-acetamide], the Ki (human CB2 receptor; CB2 Ki) was 169 ± 39.1 nM, the “Solubility (water-soluble)” value [1, 8] was “No” and the Ki (human CB1 receptor [2]; Table 1B, mean±SEM) was 890 ± 161 nM.
For `CC1=CC[C@@H]2[C@@H](C1)c1c(O)cc(C(C)(C)CCCCNC(=O)N3CCOCC3)cc1OC2(C)C` [O-2619, Morpholino-1-carboxylic acid amide], the Ki (human CB2 receptor; read-out: CB2 Ki) was 2.26 ± 0.38 nM, the “Solubility (water-soluble)” value [1] was “No” and the EC50 (human CB1 receptor [3]; CB1 EC50, [35S]GTPγS binding, mean±SEM) was 86 ± 3.1 nM. For the same compound, the Emax (human CB1 receptor [3]; maximal GTPγS binding as percentage of stimulation produced by CP 55,940, read-out: CB1 % CP Stim) was 116 ± 7.94% and the Ki (human CB1 receptor [2]) was 18.6 ± 3.94 nM.
Compound `CC1=CC[C@@H]2[C@@H](C1)c1c(O)cc(C(C)(C)CCCCN(C(=O)N3CCOCC3)C(=O)N3CCOCC3)cc1OC2(C)C` [O-2620, Di(morpholino-1-carboxylic acid) amide] has a Ki (human CB2 receptor; read-out: CB2 Ki) of 772 ± 60.5 nM and a Ki (human CB1 receptor [2]) of 3020 ± 579 nM.
With `CCCCCc1cc(O)c2c(c1)OC(C)(C)C1CCC(C)=CC21` (stereo not drawn) [Δ^9-THC, Δ^9-tetrahydrocannabinol, reference compound] the ED50 (mice [4]) was 2.77 µmol/kg, the ED50 (mice [5]) was 2.23 µmol/kg and the “Solubility (water-soluble)” value [1, 8] was “No”. For the same compound, the ED50 (mice [6]) was 2.23 µmol/kg and the “Activity in the behavioral tests after i.c.v. injection” value (mice [7]) was “active with similar potencies in all tests, with the exception of weak antinociceptive activity”.
